Experimental data: patent US12331029B2, “Orexin 1 receptor antagonists” (NXERA PHARMA UK LIMITED, priority 2018, dated 2025)

Tests used:
[1] = biological target: T1, Human OX2 receptor (Homo sapiens, UniProt O43614); test: IPone accumulation assay, CHO cells expressing human OX2 receptor; type: cell-based; settings: antagonism of orexin A (EC80) induced inositol phosphate turnover, read-out: fpKb average OX2
T1 sequence (O43614 1-444): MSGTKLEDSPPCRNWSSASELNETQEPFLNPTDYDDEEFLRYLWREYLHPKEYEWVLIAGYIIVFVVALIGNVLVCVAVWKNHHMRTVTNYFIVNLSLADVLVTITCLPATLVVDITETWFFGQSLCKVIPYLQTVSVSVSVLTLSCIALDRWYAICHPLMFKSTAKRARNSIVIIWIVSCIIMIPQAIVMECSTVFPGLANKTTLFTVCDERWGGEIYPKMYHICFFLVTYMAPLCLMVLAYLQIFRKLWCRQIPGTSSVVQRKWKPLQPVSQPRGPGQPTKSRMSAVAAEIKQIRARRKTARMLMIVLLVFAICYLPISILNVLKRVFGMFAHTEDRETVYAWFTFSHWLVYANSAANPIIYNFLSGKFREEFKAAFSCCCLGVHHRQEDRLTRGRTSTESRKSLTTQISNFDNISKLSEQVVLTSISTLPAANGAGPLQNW
Protocol: (§1) Stable cell lines for the human OX1R and OX2R receptors were generated through the transfection of CHO cells using the transfection reagent Genejuice (Novagen number 70967) and cDNA coding for either the human OX1R or OX2R. Cells were cultured in Sigma Nutrient Mixture F-12 Ham media (catalog number N6658) supplemented with 10% heat-inactivated FBS. Forty-eight hours after transfection, cells were harvested and placed under geneticin selection by culturing in Sigma Nutrient Mixture F-12 Ham media supplemented with 10% heat-inactivated FBS and geneticin (ThermoFisher Catalog number: 10131035). Selection of the final stable clone for each receptor was made on the basis of receptor expression, assay signal to noise and robustness though increasing passage. Selected clones for the human OX1R and OX2R were then frozen down into liquid nitrogen using Cell Freezing Medium-DMSO (Sigma-Aldrich catalog number: C6164).
IPone accumulation assay. A CHO cell line stably expressing either human OX1 or OX2 receptor was used with the IPone HTRF assay kit (CisBio: Part #62IPAPEJ) to measure receptor activation. The assay was optimised to measure the ability (potency; fpKb) of antagonists to reduce agonist (orexin A)-induced inositol phosphate turnover. Briefly, cells were plated onto half area 96-well white walled plates at a density of 12,500 cells/well. Sixteen hours post-plating cell growth media was replaced with antagonist concentration-response curve diluted in stimulation buffer (supplied with the kit). […] After 30 min stimulation in a humidified incubator (37° C.) the assay was terminated by the addition of detection mixture as per manufacturer's instructions. The concentration of compound which reduced orexin-A stimulated turnover of inositol phosphates by 50% (IC50) was calculated by fitting to a four parameter sigmoidal dose response curve. The IC50 values were converted to fpKB values using the orexin A pEC50 value estimated on each plate as well as the challenge concentration interpolated from the orexin A control curve.

[2] = biological target: T2, Human OX1 receptor (Homo sapiens, UniProt O43613); test: [3H]-radioligand binding assay, human OX1 receptor membranes
T2 sequence (O43613 1-425): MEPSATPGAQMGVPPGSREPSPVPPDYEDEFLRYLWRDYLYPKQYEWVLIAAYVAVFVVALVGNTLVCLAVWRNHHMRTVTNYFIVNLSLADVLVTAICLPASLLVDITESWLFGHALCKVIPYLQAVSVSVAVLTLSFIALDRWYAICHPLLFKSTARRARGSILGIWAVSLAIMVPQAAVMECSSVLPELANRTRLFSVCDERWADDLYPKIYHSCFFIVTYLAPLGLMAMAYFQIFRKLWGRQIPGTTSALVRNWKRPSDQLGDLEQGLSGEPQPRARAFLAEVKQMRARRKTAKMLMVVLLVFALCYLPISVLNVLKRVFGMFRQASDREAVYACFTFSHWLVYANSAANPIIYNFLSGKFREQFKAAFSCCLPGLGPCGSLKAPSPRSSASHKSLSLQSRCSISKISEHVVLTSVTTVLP
Protocol: (§2) Human OX1 or OX2 receptor were cloned into Invitrogen's (ThermoFisher Scientific, UK) Bac-to-Bac Baculovirus Expression System. P0 baculovirus was generated by transfecting SF9 cells with bacmid DNA using Cellfectin® II transfection reagent (ThermoFisher Scientific, UK, Catalog number 10362-100). Following P0 generation P1 virus was then generated ready for large scale infection and membrane preparation. SF21 cells were grown in expression medium ESF921 (Expression Systems, USA, catalog number 96-001-01) supplemented with 10% heat-inactivated FBS and 1% Pen/Strep and were infected at a cell density of 2.5×10^6 cells/mL and a multiplicity of infection of 1.0 for both human OX1R and OX2R. Incubation was carried out at over 48 h in a shaking incubator set at 27° C. The cell culture was then centrifuged at 2,500 rcf for 10 min at 4° C. The pellets were resuspended in cold PBS supplemented with Roche's Complete EDTA-free protease inhibitor cocktail tablets (Roche Applied Sciences, catalog number 05056489001), 1 mM PMSF and 1 mM EDTA. The resuspended cell paste was then centrifuged at 3,273 rcf for 12 min at 4° C. The supernatant was discarded and the pellet frozen at −80° C. The cell pellet from a 4 L culture was resuspended in buffer containing 50 mM HEPES pH 7.5, 150 mM NaCl, 8 Roche EDTA-Free protease inhibitor cocktail tablets and 1 mM PMSF. The suspension was left stirring at rt for 1 h and then homogenised for 90 s at 9,500 rpm using a VDI 25 (VWR, USA) homogeniser. The cells were then lysed using a Microfluidiser processor M-110L Pneumatic (Microfluidics, USA) at 60 PSI and membranes collected by ultracentrifugation at 204.7 k×g for 1 h. The supernatant was discarded and the pellet was resuspended and homogenised in 90 s at 9,500 rpm in 50 mL (25 mL for each 2 L culture) of buffer containing 50 mM Hepes pH 7.5, 150 mM NaCl, 3 Roche EDTA-free protease inhibitor cocktail tablets and 1 mM PMSF. The resulting membranes were then stored at −80° C.
(§3) [^3H]-radioligand binding assay. After thawing, membrane homogenates were re-suspended in the binding buffer (8.5 mM HEPES, pH 7.4, 1.3 mM CaCl2, 1.2 mM MgSO4, 118 mM NaCl, 4.7 mM KCl, 4 mM NaHCO3, 1.2 mM KH2PO4, 11 mM glucose) to a final assay concentration of 6.4 μg (OX1) or 1.4 μg (OX2) protein per well. Saturation isotherms were determined by the addition of various concentrations (0-30 nM) of [^3H]-4-(2,6-difluoro-4-methoxybenzyl)-2-(5,6-dimethoxypyridin-3-yl)-2H-1,2,4-benzothiadiazin-3(4H)-one 1,1-dioxide (Christopher et al, MedChemComm., 2015, 6, 947-955) in a total reaction volume of 250 μL for 90 min at rt. At the end of the incubation, membranes were filtered onto a 96-well GF/B filter pre-incubated with 0.5% polyethylenimine, with a Tomtec cell harvester and washed 5 times with 0.5 mL distilled water. Non-specific binding (NSB) was measured in the presence of 3.33 μM [4-(5-chloro-1,3-benzoxazol-2-yl)-7-methyl-1,4-diazepan-1-yl][5-methyl-2-(2H-1,2,3-triazol-2-yl)phenyl]methanone (Wertz et al, Angew. Chem. Int. Ed., 2011, 50, 11511-11515). Radioactivity on the filter was counted (1 min) on a Microbeta radiometric plate counter (Perkin Elmer) after addition of 50 μL of scintillation fluid (LabLogic: Part #SG-BXX-14). […] IC50 values were derived from the inhibition curve and the equilibrium dissociation constant (Ki) values were calculated using the Cheng-Prusoff equation.

[3] = biological target: T2, Human OX1 receptor; test: IPone accumulation assay, CHO cells expressing human OX1 receptor; type: cell-based; settings: antagonism of orexin A (EC80) induced inositol phosphate turnover, read-out: fpKb average OX1 (converted)
Protocol: as §1
IPone accumulation assay. A CHO cell line stably expressing either human OX1 or OX2 receptor was used with the IPone HTRF assay kit (CisBio: Part #62IPAPEJ) to measure receptor activation. The assay was optimised to measure the ability (potency; fpKb) of antagonists to reduce agonist (orexin A)-induced inositol phosphate turnover. Briefly, cells were plated onto half area 96-well white walled plates at a density of 12,500 cells/well. Sixteen hours post-plating cell growth media was replaced with antagonist concentration-response curve diluted in stimulation buffer (supplied with the kit). Cells were incubated in a humidified incubator (37° C.) for 30 min before an EC80 challenge concentration (˜20 nM (OX1) and 40 nM (OX2)) of orexin A (Tocris catalogue number 1455). After 30 min stimulation in a humidified incubator (37° C.) the assay was terminated by the addition of detection mixture as per manufacturer's instructions. The concentration of compound which reduced orexin-A stimulated turnover of inositol phosphates by 50% (IC50) was calculated by fitting to a four parameter sigmoidal dose response curve. The IC50 values were converted to fpKB values using the orexin A pEC50 value estimated on each plate as well as the challenge concentration interpolated from the orexin A control curve.

[4] = biological target: T1, Human OX2 receptor; test: [3H]-radioligand binding assay, human OX2 receptor membranes
Protocol: as §2, §3

Row | SMILES | Kb [1] | Ki [2] | Kb [3] | Ki [4]
1 | COCc1cccc(-n2nccn2)c1C(=O)N[C@H]1CCC[C@@H]1COc1ccc(F)cc1 [Example 17, N-[(1S,2S)-2-[(4-fluorophenoxy)methyl]cyclopentyl]-2-(methoxymethyl)-6-(triazol-2-yl)benzamide] | > 631 nM | 31.6 nM | 251 nM | > 1.26 µM
2 | COCc1ccc(-n2nccn2)c(C(=O)N[C@H]2CCC[C@@H]2COc2ccc(F)cc2)n1 [Example 18, N-[(1S,2S)-2-[(4-fluorophenoxy)methyl]cyclopentyl]-6-(methoxymethyl)-3-(triazol-2-yl)pyridine-2-carboxamide] | > 1260 nM | 7.94 nM | 63.1 nM | > 5.01 µM
3 | COCc1ccc(-n2nccn2)c(C(=O)N[C@H]2CCC[C@@H]2COc2ccc(Cl)cc2)n1 [Example 19, N-[(1S,2S)-2-[(4-chlorophenoxy)methyl]cyclopentyl]-6-(methoxymethyl)-3-(triazol-2-yl)pyridine-2-carboxamide] | > 1260 nM | 7.94 nM | 79.4 nM | > 5.01 µM
4 | COc1ccc(-n2nccn2)c(C(=O)N[C@H]2CCC[C@@H]2COc2ccc(F)cc2)n1 [Example 20, N-[(1S,2S)-2-[(4-fluorophenoxy)methyl]cyclopentyl]-6-methoxy-3-(triazol-2-yl)pyridine-2-carboxamide] | > 1260 nM | 7.94 nM | 100 nM | > 5.01 µM
5 | COc1ccc(-n2nccn2)c(C(=O)N[C@H]2CCC[C@@H]2COc2ccc(Cl)cc2)n1 [Example 21, N-[(1S,2S)-2-[(4-chlorophenoxy)methyl]cyclopentyl]-6-methoxy-3-(triazol-2-yl)pyridine-2-carboxamide] | > 631 nM | 12.6 nM | 794 nM | > 5.01 µM
6 | Cc1ccc(-n2nccn2)c(C(=O)N[C@H]2CCC[C@@H]2COc2ccc(F)cc2)n1 [Example 22, N-[(1S,2S)-2-[(4-fluorophenoxy)methyl]cyclopentyl]-6-methyl-3-(triazol-2-yl)pyridine-2-carboxamide] | > 1260 nM | 3.98 nM | 25.1 nM | > 3.16 µM
7 | Cc1ccc(-n2nccn2)c(C(=O)N[C@H]2CCC[C@@H]2COc2ccc(Cl)cc2)n1 [Example 23, N-[(1S,2S)-2-[(4-chlorophenoxy)methyl]cyclopentyl]-6-methyl-3-(triazol-2-yl)pyridine-2-carboxamide] | > 1260 nM | 1.26 nM | 39.8 nM | > 3.98 µM
8 | Cc1ccc(-c2ncccn2)c(C(=O)N[C@H]2CCC[C@@H]2COc2ccc(F)cc2)n1 [Example 24, N-[(1S,2S)-2-[(4-fluorophenoxy)methyl]cyclopentyl]-6-methyl-3-pyrimidin-2-yl-pyridine-2-carboxamide] | > 631 nM | 15.8 nM | 15.8 nM | > 3.98 µM
9 | O=C(N[C@H]1CCC[C@@H]1COc1ccc(F)cc1)c1ncccc1-c1ncccn1 [Example 25, N-[(1S,2S)-2-[(4-fluorophenoxy)methyl]cyclopentyl]-3-pyrimidin-2-yl-pyridine-2-carboxamide] | > 631 nM | 7.94 nM | 79.4 nM | > 3.16 µM
10 | O=C(N[C@H]1CCC[C@@H]1COc1ccc(F)cc1F)c1ncccc1-c1ncccn1 [Example 26, N-[(1S,2S)-2-[(2,4-difluorophenoxy)methyl]cyclopentyl]-3-pyrimidin-2-yl-pyridine-2-carboxamide] | > 794 nM | 12.6 nM | 251 nM | > 3.16 µM
11 | O=C(N[C@H]1CCC[C@@H]1COc1ccc(Cl)cc1)c1ncccc1-c1ncccn1 [Example 27, N-[(1S,2S)-2-[(4-chlorophenoxy)methyl]cyclopentyl]-3-pyrimidin-2-yl-pyridine-2-carboxamide] | > 2510 nM | 20 nM | 316 nM | > 5.01 µM
12 | O=C(N[C@H]1CCC[C@@H]1COc1ccc(F)c(F)c1)c1ncccc1-c1ncccn1 [Example 28, N-[(1S,2S)-2-[(3,4-difluorophenoxy)methyl]cyclopentyl]-3-pyrimidin-2-yl-pyridine-2-carboxamide] | > 2510 nM | 25.1 nM | 100 nM | > 1.26 µM
13 | COc1nccc(-n2nccn2)c1C(=O)N[C@H]1CCC[C@@H]1COc1ccc(F)cc1 [Example 29, N-[(1S,2S)-2-[(4-fluorophenoxy)methyl]cyclopentyl]-2-methoxy-4-(triazol-2-yl)pyridine-3-carboxamide] | > 631 nM | 6.31 nM | 39.8 nM | 0.794 µM
14 | COc1nccc(-c2ncccn2)c1C(=O)N[C@H]1CCC[C@@H]1COc1ccc(F)cc1 [Example 30, N-[(1S,2S)-2-[(4-fluorophenoxy)methyl]cyclopentyl]-2-methoxy-4-pyrimidin-2-yl-pyridine-3-carboxamide] | > 631 nM | 7.94 nM | 25.1 nM | > 1.26 µM
15 | COc1cccc(-c2ncccn2)c1C(=O)N[C@H]1CCC[C@@H]1COc1ccc(F)cn1 [Example 32, N-[(1S,2S)-2-[(5-fluoro-2-pyridyl)oxymethyl]cyclopentyl]-2-methoxy-6-pyrimidin-2-yl-benzamide] | > 2510 nM | 20 nM | 50.1 nM | 2 µM
